Results reported in patent US4217271A, “Basic azo dyestuffs containing a n-picolinium alkylene amino phenyl group” (Imperial Chemical Industries Limited, priority 1977, dated 1980).

Experiment: Solubility in water (grams/100 ml) at 30, 60 and 90° C.
Format: physicochemical
Details: for Solubility in water: chloride anion

- Solubility in water (30° C.): 2.5 grams/100 ml
- Solubility in water (60° C.): 62 grams/100 ml
- Solubility in water (90° C.): > 100 grams/100 ml
- aqueous solubility compared with Basic Red 18:1 (both dyestuffs having a chloride anion): superior aqueous solubility
Structure (SMILES): CCN(CC[n+]1ccc(C)cc1)c1ccc(N=Nc2ccc([N+](=O)[O-])cc2Cl)cc1 [Example 1, 4-nitro-2-chloroaniline N-2-(N'-ethylanilino)-ethyl-4-methylpyridinium chloride]
